Assay results reported in patent US20230219965A1 (KSQ Therapeutics, Inc., priority 2020, published 2023).

Molecular target: USP1/UAF1 enzyme (Homo sapiens, UniProt O94782)
Experiment: USP1/UAF1 deubiquitination assay (ubiquitin-rhodamine 110 substrate)
Assay type: biochemical
Conditions: read-out: USP1 IC50 (Ub-Rho)
How it was run: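 Cleavage of 150 nM ubiquitin-rhodamine 110 by 0.05 nM USP1/UAF1 was followed as fluorescence (Ex480/Em540, kinetic, 30 min) in Tris-HCl pH 7.8 buffer with EDTA, BSA, DTT and Tween-20. Compounds, top 10 μM, were preincubated with enzyme 10 min; % inhibition against no-enzyme and DMSO wells gave four-parameter IC50s.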

Sequence of USP1/UAF1 enzyme (O94782 whole entry): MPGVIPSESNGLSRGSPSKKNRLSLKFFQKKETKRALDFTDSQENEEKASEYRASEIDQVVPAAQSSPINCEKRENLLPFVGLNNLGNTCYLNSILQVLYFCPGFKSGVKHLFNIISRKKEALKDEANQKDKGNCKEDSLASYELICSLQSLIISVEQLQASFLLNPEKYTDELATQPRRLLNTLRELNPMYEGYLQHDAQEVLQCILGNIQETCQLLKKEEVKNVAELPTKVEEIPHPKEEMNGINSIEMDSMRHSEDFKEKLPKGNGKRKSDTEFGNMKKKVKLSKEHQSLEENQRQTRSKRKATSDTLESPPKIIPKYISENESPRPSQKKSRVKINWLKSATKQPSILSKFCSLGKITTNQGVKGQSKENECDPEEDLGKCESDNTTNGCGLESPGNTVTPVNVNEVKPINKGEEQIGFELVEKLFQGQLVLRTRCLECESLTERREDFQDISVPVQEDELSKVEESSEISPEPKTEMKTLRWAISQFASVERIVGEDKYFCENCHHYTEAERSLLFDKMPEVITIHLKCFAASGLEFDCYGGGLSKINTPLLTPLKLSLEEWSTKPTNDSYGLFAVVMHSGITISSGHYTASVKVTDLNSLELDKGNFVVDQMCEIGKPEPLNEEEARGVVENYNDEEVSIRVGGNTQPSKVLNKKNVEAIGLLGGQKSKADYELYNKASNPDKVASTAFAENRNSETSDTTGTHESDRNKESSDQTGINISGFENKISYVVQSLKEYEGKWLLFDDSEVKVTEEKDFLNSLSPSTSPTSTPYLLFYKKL
Sequence of USP1/UAF1 enzyme (Q8TAF3 whole entry partner): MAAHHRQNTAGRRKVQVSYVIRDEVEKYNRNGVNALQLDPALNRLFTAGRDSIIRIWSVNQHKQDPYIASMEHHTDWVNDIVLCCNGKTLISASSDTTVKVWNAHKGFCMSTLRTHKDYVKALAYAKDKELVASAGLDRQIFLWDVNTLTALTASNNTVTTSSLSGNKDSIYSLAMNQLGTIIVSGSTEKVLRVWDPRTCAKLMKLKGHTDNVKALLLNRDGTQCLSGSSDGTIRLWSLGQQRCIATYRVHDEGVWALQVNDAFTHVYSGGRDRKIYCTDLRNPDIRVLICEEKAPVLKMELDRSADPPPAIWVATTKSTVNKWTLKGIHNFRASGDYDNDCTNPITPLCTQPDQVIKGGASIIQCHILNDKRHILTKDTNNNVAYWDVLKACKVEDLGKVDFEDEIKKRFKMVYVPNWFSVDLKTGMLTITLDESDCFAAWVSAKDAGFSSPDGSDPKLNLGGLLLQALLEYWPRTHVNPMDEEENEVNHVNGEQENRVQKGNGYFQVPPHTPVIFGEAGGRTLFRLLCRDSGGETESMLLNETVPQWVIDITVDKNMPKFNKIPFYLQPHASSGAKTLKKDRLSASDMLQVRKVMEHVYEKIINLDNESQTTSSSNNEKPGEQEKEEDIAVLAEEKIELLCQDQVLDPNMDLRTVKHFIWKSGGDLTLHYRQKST

| IC50 | SMILES |
| --- | --- |
| 0.1 to 0.5 µM | CC(C)n1ccnc1-c1ccc(CN2C(=O)CCn3nc(-c4c(Cl)cnn4C(C)C)cc32)cc1Cl [Example 303] |
| 0.1 to 0.5 µM | COc1cccnc1-c1ccc(CN2C(=O)CCn3nc(-c4c(OC)ncnc4C4CC4)nc32)cc1Cl [Example 306] |
| 0.1 to 0.5 µM | COc1cccnc1-c1ccc(CN2C(=O)CCn3nc(-c4c(OC)ncnc4C4CC4)nc32)cc1F [Example 308] |
| > 0.5 µM | COc1cc(CN2C(=O)CCn3nc(-c4c(Cl)cnn4C(C)C)cc32)ccc1-c1ncccc1Cl [Example 311] |
| 0.1 to 0.5 µM | COc1cccnc1-c1ccc(CN2C(=O)CCn3nc(-c4c(OC)ncnc4C4CC4)cc32)cc1Cl [Example 313] |
| > 0.5 µM | CCNc1ccc(-c2ccc(CN3C(=O)CCn4nc(-c5c(Cl)cnn5C(C)C)cc43)cc2Cl)nn1 [Example 314] |
| > 0.5 µM | CC(C)n1cnc(-c2ccc(CN3C(=O)CCn4nc(-c5c(Cl)cnn5C(C)C)cc43)cc2Cl)c1 [Example 315] |
| 0.1 to 0.5 µM | CC(C)n1ncc(Cl)c1-c1cc2n(n1)CCC(=O)N2Cc1ccc(-c2nc(C(F)(F)F)ccc2F)c(Cl)c1 [Example 316] |
| 0.1 to 0.5 µM | COc1cccnc1-c1ccc(CN2C(=O)CCn3nc(-c4c(OC)ncnc4C4CC4)cc32)cc1F [Example 317] |
| > 0.5 µM | COc1cncnc1-c1ccc(CN2C(=O)CCn3nc(-c4c(Cl)cnn4C(C)C)cc32)cc1Cl [Example 318] |
| > 0.5 µM | COc1ccc(-c2ccc(CN3C(=O)CCn4nc(-c5c(Cl)cnn5C(C)C)cc43)cc2Cl)nn1 [Example 319] |
| 0.1 to 0.5 µM | CC(C)n1ncc(Cl)c1-c1cc2n(n1)CCC(=O)N2Cc1ccc(-c2ccn(S(=O)(=O)N(C)C)n2)c(Cl)c1 [Example 320] |
| 0.1 to 0.5 µM | CC(C)n1ncc(Cl)c1-c1nc2n(n1)CCC(=O)N2Cc1ccc(-c2ncccc2OCC(F)F)cc1 [Example 322] |
| 0.1 to 0.5 µM | CCn1cc(C(F)(F)F)nc1-c1ccc([C@@H](C)N2C(=O)CCn3nc(-c4c(C#N)cnn4C(C)C)cc32)cc1F [Example 326, (R)-5-(4-(1-(4-(1-ethyl-4-(trifluoromethyl)-1H-imidazol-2-yl)-3-fluorophenyl)ethyl)-5-oxo-4,5,6,7-tetrahydropyrazolo[1,5-α]pyrimidin-2-yl)-1-isopropyl-1H-pyrazole-4-carbonitrile] |
| 0.1 to 0.5 µM | CCn1cc(C(F)(F)F)nc1-c1ccc(CN2C(=O)CCn3nc(-c4c(OC(F)F)cnn4C(C)C)cc32)cc1F [Example 329, 2-(4-(difluoromethoxy)-1-isopropyl-1H-pyrazol-5-yl)-4-(4-(1-ethyl-4-(trifluoromethyl)-1H-imidazol-2-yl)-3-fluorobenzyl)-6,7-dihydropyrazolo[1,5-α]pyrimidin-5(4H)-one] |
| < 0.1 µM | CC(C)n1cc(C(F)(F)F)nc1-c1ccc(Cn2c(=O)ccn3nc(-c4c(OC(F)F)ncnc4C4CC4)nc23)cc1 [Example 344, 2-(4-cyclopropyl-6-(difluoromethoxy)pyrimidin-5-yl)-4-(4-(1-isopropyl-4-(trifluoromethyl)-1H-imidazol-2-yl)benzyl)-[1,2,4]triazolo[1,5-a]pyrimidin-5(4H)-one] |
| > 0.5 µM | CCn1cc(C(F)(F)F)nc1-c1cnc(CN2C(=O)CCn3nc(-c4c(Cl)cnn4C(C)C)cc32)nc1 [Example 354, 2-(4-chloro-1-isopropyl-1H-pyrazol-5-yl)-4-((5-(1-ethyl-4-(trifluoromethyl)-1H-imidazol-2-yl)pyrimidin-2-yl)methyl)-6,7-dihydropyrazolo[1,5-α]pyrimidin-5(4H)-one] |

| IC50 | SMILES |
| --- | --- |
| 0.1 to 0.5 µM | CCn1cc(C(F)(F)F)nc1-c1ccc(N(C)C2CCCc3nn(-c4ccccc4C(C)C)cc32)cc1F (stereo not drawn) [Example 356, N-(4-(1-ethyl-4-(trifluoromethyl)-1H-imidazol-2-yl)-3-fluorophenyl)-2-(2-isopropylphenyl)-N-methyl-4,5,6,7-tetrahydro-2H-indazol-4-amine] |
| 0.1 to 0.5 µM | CCn1cc(C(F)(F)F)nc1-c1ccc(CC2NCCn3nc(-c4c(Cl)cnn4C(C)C)cc32)cc1 (stereo not drawn) [Example 359, 2-(4-chloro-1-isopropyl-1H-pyrazol-5-yl)-4-(4-(1-ethyl-4-(trifluoromethyl)-1H-imidazol-2-yl)benzyl)-4,5,6,7-tetrahydropyrazolo[1,5-α]pyrazine] |
| 0.1 to 0.5 µM | CCn1cc(C(F)(F)F)nc1-c1ccc(CC2NCCn3nc(-c4c(OC)ncnc4C4CC4)cc32)cc1 (stereo not drawn) [Example 361, 2-(4-cyclopropyl-6-methoxypyrimidin-5-yl)-4-(4-(1-ethyl-4-(trifluoromethyl)-1H-imidazol-2-yl)benzyl)-4,5,6,7-tetrahydropyrazolo[1,5-a]pyrazine] |
| < 0.1 µM | CC(CF)n1cc(C(F)(F)F)nc1-c1ccc(CN2C(=O)CCn3nc(-c4c(OC(F)F)ncnc4C4CC4)nc32)cc1 (stereo not drawn) [Example 366, 2-(4-cyclopropyl-6-(difluoromethoxy)pyrimidin-5-yl)-4-(4-(1-(1-fluoropropan-2-yl)-4-(trifluoromethyl)-1H-imidazol-2-yl)benzyl)-6,7-dihydro-[1,2,4]triazolo[1,5-a]pyrimidin-5(4H)-one] |
| < 0.1 µM | O=C1CCn2nc(-c3c(OC(F)F)ncnc3C3CC3)nc2N1Cc1ccc(-c2nc(C(F)(F)F)cn2CCF)cc1 [Example 367, 2-(4-cyclopropyl-6-(difluoromethoxy)pyrimidin-5-yl)-4-(4-(1-(2-fluoroethyl)-4-(trifluoromethyl)-1H-imidazol-2-yl)benzyl)-6,7-dihydro-[1,2,4]triazolo[1,5-a]pyrimidin-5(4H)-one] |
| < 0.1 µM | Cn1cc(C(F)(F)F)nc1-c1ccc(CN2C(=O)CCn3nc(-c4c(OC(F)F)ncnc4C4CC4)nc32)cc1 [Example 368, 2-(4-cyclopropyl-6-(difluoromethoxy)pyrimidin-5-yl)-4-(4-(1-methyl-4-(trifluoromethyl)-1H-imidazol-2-yl)benzyl)-6,7-dihydro-[1,2,4]triazolo[1,5-a]pyrimidin-5(4H)-one] |
| < 0.1 µM | CC(C)n1cc(C(F)(F)F)nc1-c1ccc(CN2C(=O)CCn3nc(-c4c(OC(F)F)ncnc4C4CC4)nc32)cc1 [Example 369, 2-(4-cyclopropyl-6-(difluoromethoxy)pyrimidin-5-yl)-4-(4-(1-isopropyl-4-(trifluoromethyl)-1H-imidazol-2-yl)benzyl)-6,7-dihydro-[1,2,4]triazolo[1,5-a]pyrimidin-5(4H)-one] |
| < 0.1 µM | COc1ncnc(C2CC2)c1-c1nc2n(n1)CCC(=O)N2C(C)c1ccc(-n2nc(C(F)(F)F)cc2OC)cc1 (stereo not drawn) [Example 372, 2-(4-cyclopropyl-6-methoxypyrimidin-5-yl)-4-(1-(4-(5-methoxy-3-(trifluoromethyl)-1H-pyrazol-1-yl)phenyl)ethyl)-6,7-dihydro-[1,2,4]triazolo[1,5-a]pyrimidin-5(4H)-one] |
| 0.1 to 0.5 µM | CCn1cc(C(F)(F)F)nc1-c1ccc(CN2C(=O)CCn3nc(-c4c(C5CC5)ccnc4OC(F)F)nc32)cc1 [Example 373, 2-(4-cyclopropyl-2-(difluoromethoxy)pyridin-3-yl)-4-(4-(1-ethyl-4-(trifluoromethyl)-1H-imidazol-2-yl)benzyl)-6,7-dihydro-[1,2,4]triazolo[1,5-a]pyrimidin-5(4H)-one] |
| < 0.1 µM | [2H]C([2H])([2H])C([2H])(n1cc(C(F)(F)F)nc1-c1ccc(CN2C(=O)CCn3nc(-c4c(OC(F)F)ncnc4C4CC4)nc32)cc1)C([2H])([2H])[2H] [Example 374, 2-(4-cyclopropyl-6-(difluoromethoxy)pyrimidin-5-yl)-4-(4-(1-(propan-2-yl-d7)-4-(trifluoromethyl)-1H-imidazol-2-yl)benzyl)-6,7-dihydro-[1,2,4]triazolo[1,5-a]pyrimidin-5(4H)-one] |
| < 0.1 µM | [2H]C([2H])([2H])C([2H])([2H])n1cc(C(F)(F)F)nc1-c1ccc(CN2C(=O)CCn3nc(-c4c(OC(F)F)ncnc4C4CC4)nc32)cc1 [Example 375, 2-(4-cyclopropyl-6-(difluoromethoxy)pyrimidin-5-yl)-4-(4-(1-(ethyl-d5)-4-(trifluoromethyl)-1H-imidazol-2-yl)benzyl)-6,7-dihydro-[1,2,4]triazolo[1,5-a]pyrimidin-5(4H)-one] |
| < 0.1 µM | CCn1cc(C(F)(F)F)nc1-c1ccc(CN2C(=O)CCn3nc(-c4c(OC)ncnc4OC(F)F)nc32)cc1 [Example 376, 2-(4-(difluoromethoxy)-6-methoxypyrimidin-5-yl)-4-(4-(1-ethyl-4-(trifluoromethyl)-1H-imidazol-2-yl)benzyl)-6,7-dihydro-[1,2,4]triazolo[1,5-a]pyrimidin-5(4H)-one] |
| < 0.1 µM | Cn1cc(C(F)(F)F)nc1-c1ccc(CN2C(=O)CCn3nc(-c4c(OC(F)F)ncnc4C4CC4)nc32)cc1F [Example 377, 2-(4-cyclopropyl-6-(difluoromethoxy)pyrimidin-5-yl)-4-(3-fluoro-4-(1-methyl-4-(trifluoromethyl)-1H-imidazol-2-yl)benzyl)-6,7-dihydro-[1,2,4]triazolo[1,5-a]pyrimidin-5(4H)-one] |
| < 0.1 µM | COc1ncnc(C2CC2)c1-c1nc2n(n1)CCC(=O)N2C(C)c1ccc(-c2nc(C(F)(F)F)cn2C)cc1 (stereo not drawn) [Example 378, 2-(4-cyclopropyl-6-methoxypyrimidin-5-yl)-4-(1-(4-(1-methyl-4-(trifluoromethyl)-1H-imidazol-2-yl)phenyl)ethyl)-6,7-dihydro-[1,2,4]triazolo[1,5-a]pyrimidin-5(4H)-one] |
| < 0.1 µM | CCn1cc(C(F)(F)F)nc1-c1ccc(CN2C(=O)[C@@H](C)Cn3nc(-c4c(OC)ncnc4C4CC4)nc32)cc1 [Example 381, (S)-2-(4-cyclopropyl-6-methoxypyrimidin-5-yl)-4-(4-(1-ethyl-4-(trifluoromethyl)-1H-imidazol-2-yl)benzyl)-6-methyl-6,7-dihydro-[1,2,4]triazolo[1,5-a]pyrimidin-5(4H)-one] |
| < 0.1 µM | CCn1cc(C(F)(F)F)nc1-c1ccc(CN2C(=O)[C@H](C)Cn3nc(-c4c(OC)ncnc4C4CC4)nc32)cc1 [Example 382, (R)-2-(4-cyclopropyl-6-methoxypyrimidin-5-yl)-4-(4-(1-ethyl-4-(trifluoromethyl)-1H-imidazol-2-yl)benzyl)-6-methyl-6,7-dihydro-[1,2,4]triazolo[1,5-a]pyrimidin-5(4H)-one] |
